Source: patent US20260315464A1, “COMPOSITIONS, METHODS, AND SYSTEMS FOR MODULATING SPLICING OF MSH3” (REVIR THERAPEUTICS, INC., priority 2023, published 2026)

System: MSH3
Assay: QPCR assay for levels of MSH3 upon compound treatment in HEK293T or AD293 cells (fold-change of MSH3 transcript, EC50 of MSH3 downregulation; total MSH3 exons 13/14, exons 20/21; Table 8)
Type: cell-based
Conditions: for mrna remaining at 1 µM / mrna remaining at 10 µM: Homo sapiens, fold-change of the MSH3 transcript, normalized to GAPDH; for mrna remaining at 1 µM: 1 μM compound; for mrna remaining at 10 µM: 10 μM compound
Procedure, shortened: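 MSH3 mRNA was quantified by TaqMan qPCR covering exons 13/14, exons 20/21, exon 13/PE14A and exon 20/PE21A, with GAPDH as reference. Cells used were HEK293T or AD293, treated with compound at 1 μM and […].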

SMILES: Cc1nn(C)nc1-c1cc(F)c2c(c1)C(=O)N(c1ccc(N3CCN[C@@H](C(C)(C)C)C3)nn1)C2 [Compound 298, (S)-2-(6-(3-(tert-butyl)piperazin-1-yl)pyridazin-3-yl)-6-(2,5-dimethyl-2H-1,2,3-triazol-4-yl)-4-fluoroisoindolin-1-one]
- mrna remaining at 1 µM: 89%
- mrna remaining at 10 µM: 29%

SMILES: Cn1nc(Cl)c(-c2cnc3c(c2)C(=O)N(c2ccc(N4CCN5CCC[C@H]5C4)nn2)C3)n1 [Compound 620, (S)-3-(5-chloro-2-methyl-2H-1,2,3-triazol-4-yl)-6-(6-(hexahydropyrrolo[1,2-a]pyrazin-2(1H)-yl)pyridazin-3-yl)-6,7-dihydro-5H-pyrrolo[3,4-b]pyridin-5-one]
- mrna remaining at 1 µM: 93%
- mrna remaining at 10 µM: 55%

SMILES: CN(c1ccc(N2Cc3c(Cl)cc(-c4nn(C)nc4Cl)cc3C2=O)nn1)[C@H]1C[C@]2(C)CC[C@](C)(C1)N2 [Compound 679, 4-chloro-6-(5-chloro-2-methyl-2H-1,2,3-triazol-4-yl)-2-(6-(((1R,3s,5S)-1,5-dimethyl-8-azabicyclo[3.2.1]octan-3-yl)(methyl)amino)pyridazin-3-yl)isoindolin-1-one]
- mrna remaining at 1 µM: 95%
- mrna remaining at 10 µM: 34%

SMILES: CC[C@]12CC[C@](CC)(C[C@@H](Oc3ccc(N4Cc5cnc(-c6cn(C)nc6C)cc5C4=O)nn3)C1)N2 [Compound 100, 2-(6-(((1R,3s,5S)-1,5-diethyl-8-azabicyclo[3.2.1]octan-3-yl)oxy)pyridazin-3-yl)-6-(1,3-dimethyl-1H-pyrazol-4-yl)-2,3-dihydro-1H-pyrrolo[3,4-c]pyridin-1-one]
- mrna remaining at 1 µM: 65%
- mrna remaining at 10 µM: 11%

SMILES: Cc1nn(C)nc1-c1cnc2c(c1)C(=O)N(c1ccc(N3CCN[C@@H](C(C)(C)C)C3)nn1)C2 [Compound 600, (S)-6-(6-(3-(tert-butyl)piperazin-1-yl)pyridazin-3-yl)-3-(2,5-dimethyl-2H-1,2,3-triazol-4-yl)-6,7-dihydro-5H-pyrrolo[3,4-b]pyridin-5-one]
- mrna remaining at 1 µM: 104%
- mrna remaining at 10 µM: 14%

SMILES: CN(c1ccc(N2Cc3ncc(-c4cnn(CC(C)(C)O)c4)nc3C2=O)nn1)[C@H]1C[C@]2(C)CC[C@](C)(C1)N2 [Compound 625, 6-(6-(((1R,3s,5S)-1,5-dimethyl-8-azabicyclo[3.2.1]octan-3-yl)(methyl)amino)pyridazin-3-yl)-3-(1-(2-hydroxy-2-methylpropyl)-1H-pyrazol-4-yl)-6,7-dihydro-5H-pyrrolo[3,4-b]pyrazin-5-one]
- mrna remaining at 1 µM: 81%
- mrna remaining at 10 µM: 108%

SMILES: Cc1nn(C)cc1-c1cc(F)c2c(c1)C(=O)N(c1cnc(N(C)[C@H]3C[C@]4(C)CC[C@](C)(C3)N4)nn1)C2 [Compound 291, 6-(1,3-dimethyl-1H-pyrazol-4-yl)-2-(3-(((1R,3s,5S)-1,5-dimethyl-8-azabicyclo[3.2.1]octan-3-yl)(methyl)amino)-1,2,4-triazin-6-yl)-4-fluoroisoindolin-1-one]
- mrna remaining at 1 µM: 93%
- mrna remaining at 10 µM: 81%

SMILES: Cn1ncc(-c2cnc3c(c2)C(=O)N(c2ccc(S[C@H]4C[C@]5(C)CC[C@](C)(C4)N5)nn2)C3)n1 [Compound 606, 6-(6-(((1R,3s,5S)-1,5-dimethyl-8-azabicyclo[3.2.1]octan-3-yl)thio)pyridazin-3-yl)-3-(2-methyl-2H-1,2,3-triazol-4-yl)-6,7-dihydro-5H-pyrrolo[3,4-b]pyridin-5-one]
- mrna remaining at 1 µM: 57%
- mrna remaining at 10 µM: 25%

SMILES: Cc1nn(C)cc1-c1cc2c(cn1)CN(c1ccc(O[C@@H]3C[C@@]4(C)CC[C@](C)(N4)[C@@H]3F)nn1)C2=O [Compound 79, 6-(1,3-dimethyl-1H-pyrazol-4-yl)-2-(6-(((1S,2S,3R,5R)-2-fluoro-1,5-dimethyl-8-azabicyclo[3.2.1]octan-3-yl)oxy)pyridazin-3-yl)-2,3-dihydro-1H-pyrrolo[3,4-c]pyridin-1-one]
- mrna remaining at 1 µM: 92%
- mrna remaining at 10 µM: 31%

SMILES: CN(c1ccc(N2Cc3ccc(-c4cnn(C)c4)cc3C2=O)nn1)[C@H]1C[C@]2(C)CC[C@](C)(C1)N2 [Compound 367, 2-(6-(((1R,3s,5S)-1,5-dimethyl-8-azabicyclo[3.2.1]octan-3-yl)(methyl)amino)pyridazin-3-yl)-6-(1-methyl-1H-pyrazol-4-yl)isoindolin-1-one]
- mrna remaining at 1 µM: 57%
- mrna remaining at 10 µM: 27%

SMILES: Cc1nn(C)cc1-c1cnc2c(c1)C(=O)N(c1ccc(OC3CCNC(C)(C)C3)nn1)C2 (stereo not shown) [Compound 226, 3-(1,3-dimethyl-1H-pyrazol-4-yl)-6-(6-((2,2-dimethylpiperidin-4-yl)oxy)pyridazin-3-yl)-6,7-dihydro-5H-pyrrolo[3,4-b]pyridin-5-one]
- mrna remaining at 1 µM: 86%
- mrna remaining at 10 µM: 58%

SMILES: Cn1ncc(-c2ccc3c(c2)C(=O)N(c2ccc(OC4CC(C)(C)NC(C)(C)C4)nn2)C3)n1 [Compound 362, 6-(2-methyl-2H-1,2,3-triazol-4-yl)-2-(6-((2,2,6,6-tetramethylpiperidin-4-yl)oxy)pyridazin-3-yl)isoindolin-1-one]
- mrna remaining at 1 µM: 65%
- mrna remaining at 10 µM: 75%

SMILES: CN(C)C1CN(c2ccc(N3Cc4c(F)cc(-c5nn(C)nc5Cl)cc4C3=O)nn2)C1 [Compound 647, 6-(5-chloro-2-methyl-2H-1,2,3-triazol-4-yl)-2-(6-(3-(dimethylamino)azetidin-1-yl)pyridazin-3-yl)-4-fluoroisoindolin-1-one]
- mrna remaining at 1 µM: 119%
- mrna remaining at 10 µM: 86%

SMILES: CN(c1ccc(N2Cc3ncc(-c4cn(C)nc4C(F)(F)F)cc3C2=O)nn1)[C@H]1C[C@]2(C)CC[C@](C)(C1)N2 [Compound 183, 6-(6-(((1R,3s,5S)-1,5-dimethyl-8-azabicyclo[3.2.1]octan-3-yl)(methyl)amino)pyridazin-3-yl)-3-(1-methyl-3-(trifluoromethyl)-1H-pyrazol-4-yl)-6,7-dihydro-5H-pyrrolo[3,4-b]pyridin-5-one]
- mrna remaining at 1 µM: 99%
- mrna remaining at 10 µM: 28%

SMILES: Cn1nc(Cl)c(-c2cc(F)c3c(c2)C(=O)N(c2ccc(N4CC5CCC(C4)NC5)nn2)C3)n1 (stereo not shown) [Compound 645]
- mrna remaining at 1 µM: 87%
- mrna remaining at 10 µM: 104%

SMILES: CN(c1ccc(N2Cc3ncc(-c4nn(C)nc4Cl)nc3C2=O)nn1)[C@H]1C[C@]2(C)CC[C@](C)(C1)N2 [Compound 627, 3-(5-chloro-2-methyl-2H-1,2,3-triazol-4-yl)-6-(6-(((1R,3s,5S)-1,5-dimethyl-8-azabicyclo[3.2.1]octan-3-yl)(methyl)amino)pyridazin-3-yl)-6,7-dihydro-5H-pyrrolo[3,4-b]pyrazin-5-one]
- mrna remaining at 1 µM: 37%
- mrna remaining at 10 µM: 11%

SMILES: Cc1nn(C)cc1-c1cnc2c(n1)C(=O)N(c1ccc(O[C@H]3C[C@]4(C)CC[C@](C)(C3)N4)nn1)C2 [Compound 622, 3-(1,3-dimethyl-1H-pyrazol-4-yl)-6-(6-(((1R,3s,5S)-1,5-dimethyl-8-azabicyclo[3.2.1]octan-3-yl)oxy)pyridazin-3-yl)-6,7-dihydro-5H-pyrrolo[3,4-b]pyrazin-5-one]
- mrna remaining at 1 µM: 76%
- mrna remaining at 10 µM: 30%

SMILES: Cc1nn(C)nc1-c1cnc2c(c1)C(=O)N(c1ccc(OC3CC(C)(C)NC(C)(C)C3)nn1)C2 [Compound 179, 3-(2,5-dimethyl-2H-1,2,3-triazol-4-yl)-6-(6-((2,2,6,6-tetramethylpiperidin-4-yl)oxy)pyridazin-3-yl)-6,7-dihydro-5H-pyrrolo[3,4-b]pyridin-5-one]
- mrna remaining at 1 µM: 93%
- mrna remaining at 10 µM: 8%

SMILES: CC(C)[C@@H]1CN(c2ccc(N3Cc4c(F)cc(-c5nn(C)nc5Cl)cc4C3=O)nn2)CCN1 [Compound 638, (R)-6-(5-chloro-2-methyl-2H-1,2,3-triazol-4-yl)-4-fluoro-2-(6-(3-isopropylpiperazin-1-yl)pyridazin-3-yl)isoindolin-1-one]
- mrna remaining at 1 µM: 112%
- mrna remaining at 10 µM: 22%

SMILES: Cc1nc(C)c(-c2cc3c(cn2)CN(c2ccc(N(C)[C@H]4C[C@]5(C)CC[C@](C)(C4)N5)nn2)C3=O)s1 [Compound 62, 2-(6-(((1R,3s,5S)-1,5-dimethyl-8-azabicyclo[3.2.1]octan-3-yl)(methyl)amino)pyridazin-3-yl)-6-(2,4-dimethylthiazol-5-yl)-2,3-dihydro-1H-pyrrolo[3,4-c]pyridin-1-one]
- EC50 (EC50 of MSH3 downregulation, XtalPi): 690 nM
- mrna remaining at 1 µM: 18%
- mrna remaining at 10 µM: 8%

SMILES: Cn1nc(Cl)c(-c2cc(F)c3c(c2)C(=O)N(c2ccc(N4CCC(NC5CC5)C4)nn2)C3)n1 (stereo not shown) [Compound 652, 6-(5-chloro-2-methyl-2H-1,2,3-triazol-4-yl)-2-(6-(3-(cyclopropylamino)pyrrolidin-1-yl)pyridazin-3-yl)-4-fluoroisoindolin-1-one]
- mrna remaining at 1 µM: 103%
- mrna remaining at 10 µM: 79%

SMILES: CN(c1ncc(N2Cc3ncc(-c4cn(C)nc4F)cc3C2=O)nn1)[C@H]1C[C@]2(C)CC[C@](C)(C1)N2 [Compound 217, 6-(3-(((1R,3s,5S)-1,5-dimethyl-8-azabicyclo[3.2.1]octan-3-yl)(methyl)amino)-1,2,4-triazin-6-yl)-3-(3-fluoro-1-methyl-1H-pyrazol-4-yl)-6,7-dihydro-5H-pyrrolo[3,4-b]pyridin-5-one]
- mrna remaining at 1 µM: 92%
- mrna remaining at 10 µM: 78%

SMILES: Cc1nn(C)nc1-c1cc(F)c2c(c1)C(=O)N(c1ccc(N3CC4CC(C3)N4)nn1)C2 [Compound 662, 2-(6-(3,6-diazabicyclo[3.1.1]heptan-3-yl)pyridazin-3-yl)-6-(2,5-dimethyl-2H-1,2,3-triazol-4-yl)-4-fluoroisoindolin-1-one]
- mrna remaining at 1 µM: 191%
- mrna remaining at 10 µM: 87%

SMILES: Cc1nn(C)nc1-c1cc(Cl)c2c(c1)C(=O)N(c1ccc(N(C)[C@H]3C[C@]4(C)CC[C@](C)(C3)N4)nn1)C2 [Compound 660, 4-chloro-6-(2,5-dimethyl-2H-1,2,3-triazol-4-yl)-2-(6-(((1R,3s,5S)-1,5-dimethyl-8-azabicyclo[3.2.1]octan-3-yl)(methyl)amino)pyridazin-3-yl)isoindolin-1-one]
- mrna remaining at 1 µM: 101%
- mrna remaining at 10 µM: 50%
